# According to patent publication US20050124554A1, “Spermidine derivatives for the treatment of chronic neurodegenerative diseases” (priority 2002, published 2005):
# Key:
# Assay type in all cases: cell-based, Wistar rat
# [1] = test system: organotypic hippocampal slice cultures (CA1 pyramidal cell layer); assay: Experimental ischaemia (oxygen glucose deprivation), cell death by PI fluorescence
# Procedure: (§1) Organotypic hippocampal slice cultures were prepared according to established methods (Pringle et al. (1997), Brain Res., 755, 36-46). In brief, Wistar rat pups (8-11 days old) were decapitated and the hippocampus rapidly dissected into ice-cold Gey's balanced salt solution (Gibco Life Technologies, Paisley, UK) supplemented with 4.5 mg ml^−1 glucose. Slices were separated and plated onto Millicell CM culture inserts (4 per well) and maintained at 37° C. and 5% CO2 for 14 days. Maintenance medium consisted of 25% heat-inactivated horse serum, 25% Hank's balanced salt solution (HBSS) and 50% minimum essential medium with added Earle's salts MM, ICN Biomedicals, Basingstoke, UK) supplemented with 1 mM glutamine and 4.5 mg ml^−1 glucose. Medium was changed every 3-4 days.
# Experimental ischaemia or oxygen glucose deprivation was performed as described previously (Pringle et al. (1996), Stroke, 27, 2124-2130). Briefly, cultures were transferred to serum-free media (SFM, 75% MEM, 25% HDSS supplemented with 1 mM glutamine and 4.5 mg ml^−1 glucose) containing 5 μg ml^−1 of the fluorescent exclusion dye propidium iodide (PI). Cultures were allowed to equilibrate in SFM for 30 min prior to imaging, with or without L-Arg3,4. PI fluorescence was detected using a Leica inverted microscope as described below. Any cultures in which PI fluorescence was detected at this stage were excluded from further study. Ischaemia was induced by transferring cultures to glucose-free media (MEM with Earl's salts without glucose and supplemented with 1 mM glutamine) saturated with 95% N2 and 5% CO2. Culture plates (without lids) were then sealed into an airtight chamber (Billups-Rothenberg, Del Mar, Calif.) gassed with 95% N2 and 5% CO2 at 10 L min^−1 for 10 min before being sealed and placed at 37° C. for 50 min. At the end of the ischaemia, cultures were returned to normoxic SFM+PI, with or without compound at the indicated concentrations, and placed back in the incubator for 24 h.
# (§2) Neuronal damage was assessed as described previously (Pringle et al. (1996), Stroke, 27, 2124-2130; Pringle et al. (1997), Brain Res., 755, 36-46). Light transmission images were captured prior to the induction of injury, and PI fluorescence images recorded at the end of the 24 h post-injury recovery period. All images were captured on an inverted Leica DM-IRBE epifluorescence microscope (Milton Keynes, UK) fitted with a 100 W Hg lamp and standard rhodamine optics (excitation 510-560 nm; dichroic mirror […]; emission>590 nm). Images were acquired with a 5×NA 0.12 lens and a cooled Hamamatsu digital camera and digitised at 12 bit resolution for analysis in OpenLab 2.1 (Improvision, Coventry, UK) running on a Macintosh G4/400. The area of the CA1 or CA3 cell layer was determined from the transmission image, and the area of PI fluorescence in that cell layers was measured using the density slice function within OpenLab. Neuronal damage was expressed as a percentage of the area in which PI fluorescence was detected above threshold within a cell layer divided by the total area of that cell layer. Protection was calculated as the difference between the damage for a given well and the average damage in untreated controls divided by the average damage in untreated controls. Groups were compared against corresponding control groups using the two tailed Student's t-test with significance indicated as * for P<0.05, and ** for P<0.01. Data is presented as mean±s.e.mean.
# [2] = test system: organotypic hippocampal slice cultures (CA1 or CA3 pyramidal cell layer); assay: Excitotoxic injury by glutamate receptor agonists, cell death by PI fluorescence; settings: for protection: 300 μM
# Procedure: as §1
# Excitotoxic injury was performed as previously described (Pringle et al. (1997), Brain Res., 755, 36-46) with L-Arg3,4 present pre-, during, and post-injury fin treated cultures. Cultures were transferred to SFM+PI with or without 300 μM L-Arg3,4 and allowed to equilibrate for 30 min prior to imaging. […] The medium was then exchanged for SFM+PI plus a glutamate receptor agonist (either 10 mM glutamate, 10 μM NMDA, 10 μM AMPA, or 10 μM kainate) for 3 h. After exposure, the media was again exchanged for SFM+PI containing 300 μM L-Arg3,4. Cultures were then returned to the incubator until they were assessed for cell death in the indicated region of the pyramidal cell layer 24 h post exposure.
# as §2
# [3] = test system: organotypic hippocampal slice cultures (CA1 pyramidal cell layer); assay: Free-radical mediated injury (duroquinone), cell death by PI fluorescence; settings: 100 μM duroquinone 3 h; 300 μM compound
# Procedure: Organotypic hippocampal slice cultures were prepared according to established methods (Pringle et al. (1997), Brain Res., 755, 36-46). In brief, Wistar rat pups (8-11 days old) were decapitated and the hippocampus rapidly dissected into ice-cold Gey's balanced salt solution (Gibco Life Technologies, Paisley, UK) supplemented with 4.5 mg ml^−1 glucose. Slices were separated and plated onto Millicell CM culture inserts (4 per well) and maintained at 37° C. and 5% CO2 for 14 days. […]
# Free-radical mediated injury was performed as described previously with L-Arg3,4 present pre-, during, and post-injury in treated cultures (Wilde et al. (1997, J. Neurochem., 69, 883-886). Briefly, cultures were transferred to SFM+PI with or without 300 μM L-Arg3,4 and allowed to equilibrate for 30 min prior to imaging. Any cultures in which PI fluorescence was detected at this stage were excluded from further study. Duroquinone (DQ) was dissolved in DMSO at a stock concentration of 100 mM which was then diluted 1:1000 in SFM for a final working concentration of 100 μM (final DMSO concentration of 0.1%). […]
# Neuronal damage was assessed as described previously (Pringle et al. (1996), Stroke, 27, 2124-2130; Pringle et al. (1997), Brain Res., 755, 36-46). Light transmission images were captured prior to the induction of injury, and PI fluorescence images recorded at the end of the 24 h post-injury recovery period. […]
# [4] = 300 μM applied 0 min post-injury
# [5] = 300 μM applied 10 min post-injury
# [6] = 300 μM applied 60 min post-injury
smiles,measurement,setting,value
"N=C(N)NCCCC(N)C(=O)NCCCNCCCCN [L-Arg3,4, L-arginyl-3,4-spermidine]",damage,"[1]; 300 nM post-injury, dose study",did not reduce damage
same,damage,"[1]; 3 μM post-injury, dose study",19±5%
same,protection,"[1]; 3 μM post-injury, dose study",43%
same,damage,"[1]; 30 μM post-injury, dose study",11±3%
same,protection,"[1]; 30 μM post-injury, dose study",67%
same,delay of administration post-ischaemia at which still neuroprotective (therapeutic window),[1]; 300 μM,up to 60 min
same,damage,[1]; [4],23±3%
same,protection,[1]; [4],40%
same,damage,[1]; [5],15±2%
same,protection,[1]; [5],59%
same,damage,[1]; 300 μM applied 30 min post-injury,28±4%
same,protection,"[1]; 300 μM applied 30 min post-injury, not statistically significant",26%
same,damage,[1]; [6],26±3%
same,protection,[1]; [6],30%
same,damage,"[1]; 300 μM post-injury, dose study",23±3%
same,protection,"[1]; 300 μM post-injury, dose study",32%
same,protection,"[1]; 300 μM pre-, during, and post-ischaemia (PDP)",39%
same,neurodegeneration (PI area as % of cell layer),"[1]; 300 μM pre-, during, and post-ischaemia (PDP), 1 h ischaemia, 24 h",23±4%
same,cell death (damage) in CA1,"[2]; 10 μM AMPA 3 h, 300 μM compound",19±4%
same,protection,"[2]; 10 μM AMPA, CA1",53%
same,cell death (damage) in CA1,"[2]; 10 μM NMDA 3 h, 300 μM compound",16±2%
same,protection,"[2]; 10 μM NMDA, CA1",38%
same,cell death (damage) in CA3,"[2]; 10 μM kainate 3 h, 300 μM compound",11±4%
same,protection,"[2]; 10 μM kainate, CA3",61%
same,cell death (damage) in CA1,"[2]; 10 mM Glut 3 h, 300 μM compound pre-, during, post-injury",13±3%
same,protection,"[2]; 10 mM Glut, CA1",41%
same,injury (cell death in CA1),[3],21±5%
same,protection,[3],46%
